Target: T1, GS-D (Providencia rettgeri, UniProt A0ACG1W3V9)
T1 construct: gene KAH49_07450; full length, N-terminal 6xHis, pET28a in E. coli BL21(DE3), Ni-NTA
T1 sequence (A0ACG1W3V9 1-176): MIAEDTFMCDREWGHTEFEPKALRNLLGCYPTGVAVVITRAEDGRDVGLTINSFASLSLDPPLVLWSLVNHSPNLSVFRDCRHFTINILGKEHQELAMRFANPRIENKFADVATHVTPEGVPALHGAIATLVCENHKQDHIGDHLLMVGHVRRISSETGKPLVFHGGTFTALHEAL
Test: NADH oxidation, absorbance at […] nm
Format: biochemical
Details: pH 8.0, 30 °C, 250 μM NADH, 100 μM FAD

SMILES: NC(=O)C1=CN([C@@H]2O[C@H](COP(=O)(O)OP(=O)(O)OC[C@H]3O[C@@H](n4cnc5c(N)ncnc54)[C@H](O)[C@@H]3O)[C@@H](O)[C@H]2O)C=CC1 [NADH]
- NADH oxidation, absorbance at 340 nm: oxidation of NADH demonstrated the flavin reductase activity of the GS-D reductase

— paper PMC9871250, “Identification of an indole biodegradation gene cluster from Providencia rettgeri and its contribution in selectively biosynthesizing Tyrian purple” (Frontiers in Bioengineering and Biotechnology, 2023)
